Patent US10149860B2, “Compositions and methods for treating alzheimer's disease and other tauopathies” (Board of Trustees Of The Leland Stanford Junior University, priority 2013, dated 2018)

Columns and labels:
[1] = tested on: htau phosphorylation at 12E8 sites; test: Western blot of 12E8-positive htauM level in WP1130-fed flies; format: in vivo, Drosophila; settings: WP1130 10 μM vs DMSO; FIG. 26d
Procedure: (§1) For Western blot analysis, the primary antibodies used were: anti-PAR-1 (1:8,000), anti-phospho-PAR-1 (1:1,000); anti-HA (1:2,000, Sigma); anti-Myc (1:1,000, Millipore); anti-GFP (1:2,000, Abcam); anti-Dlg (4F3) (1:1,000, Hybridoma bank, University of Iowa); 12E8 (1:8,000); anti-Actin (1:40,000, Sigma); anti-Gapdh (1:3,000, Abcam).
(§2) Either WP1130 (Selleck Chemicals) or DMSO (Sigma) was added to fly food at 2, 5 or 10 μM concentrations. Feeding third instar larvae were collected from the drug-containing food and dissected in PBS. Besides Mhc-GAL4>UAS-APP, which were raised at 29° C., all flies were raised at 25° C.
(§3) To investigate whether WP1130 may act as an inhibitor of FAF to control PAR-1 activity in vivo, Mhc-Gal4>PAR-1 and control Mhc-Gal4/+ animals were fed with fly food containing WP1130 or DMSO alone. […]
(§4) (a) Quantification of the pharmacological effect of WP1130 on the total number of boutons on muscle 6/7 of A3, after normalization with bouton area. […] (c) Quantification of NMJ bouton number showing rescue by WP1130 (10 μM) of the bouton-loss phenotypes induced by Mhc-Gal4>UAS-htauM or Mhc-Gal4>UAS-htauM+UAS-PAR-1. […] (e) Quantification of NMJ bouton number showing rescue by WP1130 (10 μM) of the bouton-loss phenotypes induced the expression APP/Aβ-42. […]

[2] = target: T1, FAF (Drosophila melanogaster, UniProt P55824); test: Drosophila larval NMJ bouton number after feeding WP1130 in fly food; format: in vivo
T1 construct: Mhc-Gal4>PAR-1 and control Mhc-Gal4/+ animals were fed with fly food containing WP1130 or DMSO alone; endogenous in cells; host or cells: Drosophila third instar larvae (body-wall muscle / NMJ)
Procedure: For immunohistochemistry, third instar lavae were selected, dissected in PBS, fixed in 4% formaldehyde (Ted Pella) in PBS for about 15 minutes and washed 3× in 0.1% Triton X-100 in PBS. The primary antibodies used were: anti-PAR-1 (1:10,000), anti-phospho-PAR-1 (1:1,000); anti-Slimb (1:1,000); anti-Dlg (4F3) (1:50, Hybridoma bank, University of Iowa); anti-GFP (1:8,000, Abcam); anti-dtau (1:3). Primary antibody incubation was performed at 4° C. overnight. All secondary antibodies (Molecular Probes) and Texas Red or FITC-conjugated anti-HRP (Jackson ImmunoResearch Laboratories) were used at 1:200 and incubated for about 2 hours at room temperature. Laval preparations were mounted in SlowFade Antifade kit (Invitrogen). Confocal images were collected from Leica confocal microscopes SP2 and SP5 equipped with 40× or 100× inverted NX oil lens. Leica Application Suite Advanced Fluorescence software was used to capture, process and analyze images. Analysis of the NMJ was performed essentially as described^51. All crosses for genetic interaction studies in the NMJ were performed at 25° C.
as §2
Fly eye sizes were measured on multiple samples (n>15) from both control and experimental genotypes using the NIH ImageJ software. Average eye size was presented as a normalized percentage of control eye size. We performed two-tailed unpaired Student's t-test to analyze the significance of differences between two groups. Quantification of NMJ bouton number was performed according to previously described protocols (Lee et al., 2010). NMJ bouton number is normalized by muscle area at muscle 6/7 in abdominal segment A3. The experimental genotypes were normalized relative to the control genotype.
To investigate whether WP1130 may act as an inhibitor of FAF to control PAR-1 activity in vivo, Mhc-Gal4>PAR-1 and control Mhc-Gal4/+ animals were fed with fly food containing WP1130 or DMSO alone. […] Given the potent effect of WP1130 in modulating PAR-1 protein level, whether WP1130 would affect the phosphorylation of tau was tested.
(a) Quantification of the pharmacological effect of WP1130 on the total number of boutons on muscle 6/7 of A3, after normalization with bouton area. Indicated genotype flies were incubated with 0, 2, 5 or 10 μM concentrations of WP1130. (b) Western blot analyses showing the effects of WP1130 (10 μM) on PAR-1-Myc levels in third instar larvae body-wall muscle extracts. Values represent normalized PAR-1-Myc levels. Actin serves as loading control. (c) Quantification of NMJ bouton number showing rescue by WP1130 (10 μM) of the bouton-loss phenotypes induced by Mhc-Gal4>UAS-htauM or Mhc-Gal4>UAS-htauM+UAS-PAR-1. (d) Western blot analysis showing reduced 12E8-positive htauM level by WP1130 (10 μM). Values represent normalized 12E8-positive htauM levels. Actin serves as loading control. (e) Quantification of NMJ bouton number showing rescue by WP1130 (10 μM) of the bouton-loss phenotypes induced the expression APP/Aβ-42. (f) A model depicting possible signaling pathways linking APP/Aβ-42 to synaptic dysfunction and synapse loss seen in AD. Dashed lines indicate potential direct regulations.

[3] = tested on: PS19 mice; test: Passive avoidance test in PS19 tauopathy mice; format: in vivo; settings: WP1130-treated PS19 mice vs wt and vehicle treated PS19 mice; FIG. 28
Procedure: The passive avoidance test was used to test whether WP1130 could rescue the learning and memory deficits expressed in the PS19 mice. During training, the animals were subjected to electric shock on the foot in the dark chamber. During testing, the trained animals were placed in the light chamber and the time it took the animals to enter the dark chamber (latency time) was recorded. […] (Top) A diagram showing the passive-avoidance test, in which animals were allow to freely moving between the light and dark chambers during habituation. During training, the animals were subjected to electric shock on the foot in the dark chamber. During testing, the trained animals were placed in the light chamber and the time it took the animals to enter the dark chamber (latency time) was recorded. (Bottom) Statistical analysis of the latency times of vehicle-treated WT control, vehicle-treated PS19 tauopathy mice, and drug-treated PS19 tauopathy during the habituation, training, and testing periods. ** indicates P<0.01 in Student's t-test.

[4] = tested on: PAR-1; test: Western blot of PAR-1-Myc levels in third instar larvae body-wall muscle extracts; format: in vivo, Drosophila; settings: Mhc-Gal4>PAR-1 larvae; WP1130 10 μM vs DMSO; FIG. 26b
Procedure: as §1, §2, §3, §4

[5] = tested on: tau phosphorylation at the PAR-1/MARK target site (S262); test: Western blot of p-Tau (S262) in brain extracts of PS19 tauopathy mice after ICV infusion; format: in vivo; settings: relative to vehicle controls, FIG. 27
Procedure: (§5) To test the effects of WP1130 in a mammalian model of AD, the drug was administered to Tauopathy mice (PS19) expressing the pathogenic P301S human tau transgene. Mice received intracerebroventricular (ICV) infusion of either WP1130 or vehicle controls and MARK4 and p-Tau levels were assessed by western blot. […] Tauopathy mice (PS19) expressing the pathogenic P301S human tau transgene were treated with vehicle (#1, 2, 4, 6, 12) or WP1130 (#5, 8, 13, 14, 15) by intracerebroventricular (ICV) infusion, and brain extracts were subjected to Western blot analysis with the indicated antibodies. Actin serves as a loading control, and T14 anti-Tau antibody measures levels of total tau. Note the reduction of MARK4 and p-Tau (S262) protein levels by drug treatment.

[6] = tested on: MARK4; test: Western blot of MARK4 in brain extracts of PS19 tauopathy mice after ICV infusion; format: in vivo; settings: relative to vehicle controls, FIG. 27
Procedure: as §5

[7] = tested on: endogenous tau phosphorylation at the MARK sites; test: Western blot of endogenous tau phosphorylation (12E8 antibody) in HEK 293T cells; format: cell-based, human; settings: 0, 2, 5 and 10 μM WP1130 for 12 h, FIG. 25b
Procedure: (§6) HEK 293T cells transfected with the hMARK4-HA plasmids were treated with 5 μM WP1130 for 8 h and subsequently used for western blot analysis. Actin serves as loading control. […] Cultured HEK 293T cells were treated with 0, 2, 5 and 10 μM WP1130 for 12 h, and used for western blot analysis. Actin serves as loading control.

[8] = tested on: MARK4; test: Western blot of MARK4 stability in HEK 293T cells transfected with hMARK4-HA; format: cell-based, human; settings: HEK 293T cells with hMARK4-HA; 5 μM WP1130 for 8 h; FIG. 25a
Procedure: as §6

T1 sequence (P55824 whole entry, the tested form may be a part): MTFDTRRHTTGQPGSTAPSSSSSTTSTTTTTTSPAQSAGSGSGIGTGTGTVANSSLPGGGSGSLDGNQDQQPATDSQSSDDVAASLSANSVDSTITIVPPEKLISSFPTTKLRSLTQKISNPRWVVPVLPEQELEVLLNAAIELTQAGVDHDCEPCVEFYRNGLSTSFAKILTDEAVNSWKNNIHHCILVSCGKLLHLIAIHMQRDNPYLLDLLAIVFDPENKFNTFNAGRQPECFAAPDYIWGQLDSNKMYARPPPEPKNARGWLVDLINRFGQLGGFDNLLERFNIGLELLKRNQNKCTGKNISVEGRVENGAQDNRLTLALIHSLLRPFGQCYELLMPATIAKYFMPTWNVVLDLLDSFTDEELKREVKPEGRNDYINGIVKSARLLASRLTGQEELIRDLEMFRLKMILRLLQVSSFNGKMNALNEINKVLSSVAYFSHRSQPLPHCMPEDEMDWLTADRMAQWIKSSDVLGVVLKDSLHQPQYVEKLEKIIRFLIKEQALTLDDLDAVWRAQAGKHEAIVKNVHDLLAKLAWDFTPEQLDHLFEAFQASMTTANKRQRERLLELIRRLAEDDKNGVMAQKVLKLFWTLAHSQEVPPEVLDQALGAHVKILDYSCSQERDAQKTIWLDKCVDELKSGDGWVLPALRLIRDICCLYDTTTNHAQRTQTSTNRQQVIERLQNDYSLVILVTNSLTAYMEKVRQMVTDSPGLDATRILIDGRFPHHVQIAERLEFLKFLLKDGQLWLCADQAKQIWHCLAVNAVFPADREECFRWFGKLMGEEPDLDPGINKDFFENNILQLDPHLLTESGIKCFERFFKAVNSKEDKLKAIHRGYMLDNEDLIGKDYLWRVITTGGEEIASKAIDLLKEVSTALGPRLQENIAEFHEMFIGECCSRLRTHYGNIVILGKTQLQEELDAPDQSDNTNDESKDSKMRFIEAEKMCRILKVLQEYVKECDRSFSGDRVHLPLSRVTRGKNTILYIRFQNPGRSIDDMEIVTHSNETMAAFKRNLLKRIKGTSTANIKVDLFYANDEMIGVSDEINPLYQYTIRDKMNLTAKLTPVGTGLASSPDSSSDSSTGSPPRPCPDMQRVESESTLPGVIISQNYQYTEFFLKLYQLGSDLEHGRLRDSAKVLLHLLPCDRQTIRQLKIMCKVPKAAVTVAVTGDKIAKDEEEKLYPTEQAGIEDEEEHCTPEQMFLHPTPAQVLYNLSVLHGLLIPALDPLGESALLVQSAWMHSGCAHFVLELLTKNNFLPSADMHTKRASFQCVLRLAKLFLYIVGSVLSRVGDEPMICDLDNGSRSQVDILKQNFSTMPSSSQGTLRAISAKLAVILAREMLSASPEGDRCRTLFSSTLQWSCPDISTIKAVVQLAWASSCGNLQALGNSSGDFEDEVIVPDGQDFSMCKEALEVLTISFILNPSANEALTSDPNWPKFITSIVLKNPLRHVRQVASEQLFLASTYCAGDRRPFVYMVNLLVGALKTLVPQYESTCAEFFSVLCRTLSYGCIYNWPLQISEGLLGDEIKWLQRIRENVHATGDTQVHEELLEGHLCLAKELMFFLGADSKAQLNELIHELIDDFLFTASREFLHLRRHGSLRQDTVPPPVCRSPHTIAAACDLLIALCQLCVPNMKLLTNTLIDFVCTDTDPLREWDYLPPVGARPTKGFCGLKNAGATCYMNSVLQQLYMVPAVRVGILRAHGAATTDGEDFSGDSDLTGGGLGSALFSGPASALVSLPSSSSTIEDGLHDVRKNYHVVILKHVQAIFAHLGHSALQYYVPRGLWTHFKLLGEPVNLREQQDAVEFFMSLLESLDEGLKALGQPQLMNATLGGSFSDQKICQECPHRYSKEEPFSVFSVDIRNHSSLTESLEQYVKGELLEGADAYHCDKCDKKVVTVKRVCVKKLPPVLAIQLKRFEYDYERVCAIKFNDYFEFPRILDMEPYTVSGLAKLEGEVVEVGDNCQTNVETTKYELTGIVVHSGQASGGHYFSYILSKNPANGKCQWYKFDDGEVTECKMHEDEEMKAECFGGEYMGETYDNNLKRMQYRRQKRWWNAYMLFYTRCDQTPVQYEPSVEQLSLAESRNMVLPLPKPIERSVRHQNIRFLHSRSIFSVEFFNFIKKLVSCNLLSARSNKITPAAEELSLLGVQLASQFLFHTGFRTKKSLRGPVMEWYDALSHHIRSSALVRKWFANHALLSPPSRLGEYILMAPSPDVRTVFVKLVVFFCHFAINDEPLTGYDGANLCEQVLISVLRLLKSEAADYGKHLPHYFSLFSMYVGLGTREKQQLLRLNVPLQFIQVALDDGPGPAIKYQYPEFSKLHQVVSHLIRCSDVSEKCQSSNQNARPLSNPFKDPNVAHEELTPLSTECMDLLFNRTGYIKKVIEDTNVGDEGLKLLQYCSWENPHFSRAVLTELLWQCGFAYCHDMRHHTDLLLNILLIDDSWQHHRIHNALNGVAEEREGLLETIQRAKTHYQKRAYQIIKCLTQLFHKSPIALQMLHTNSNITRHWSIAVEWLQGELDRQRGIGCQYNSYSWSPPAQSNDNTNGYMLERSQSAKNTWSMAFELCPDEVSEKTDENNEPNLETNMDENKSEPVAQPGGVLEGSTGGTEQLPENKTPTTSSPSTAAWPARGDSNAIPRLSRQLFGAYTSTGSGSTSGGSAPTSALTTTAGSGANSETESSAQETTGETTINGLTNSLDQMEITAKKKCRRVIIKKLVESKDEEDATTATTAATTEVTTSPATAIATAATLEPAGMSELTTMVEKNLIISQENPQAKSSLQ

Compound: CCC[C@H](NC(=O)/C(C#N)=C/c1cccc(Br)n1)c1ccccc1 [WP1130, (S,E)-3-(6-bromopyridin-2-yl)-2-cyano-N-(1-phenylbutyl)acrylamide]
- htau phosphorylation at 12E8 sites [1]: dramatically decreased
- loss of NMJ bouton number caused by overexpression of PAR-1 ([2]; Mhc-Gal4>PAR-1 larvae, WP1130 in fly food at 0, 2, 5 or 10 μM vs DMSO, FIG. 26a): highly effective in preventing the loss of NMJ bouton number
- bouton-loss phenotype caused by the co-expression of PAR-1 and htauM ([2]; Mhc-Gal4>UAS-htauM+UAS-PAR-1, WP1130 10 μM vs DMSO, FIG. 26c): partially suppressed
- bouton-loss phenotype caused by the postsynaptic toxicity of APP/Aβ-42 ([2]; WP1130 10 μM, FIG. 26e): effectively suppressed
- synaptic-loss phenotype caused by postsynaptic co-expression of FAF and Slimb-ΔF ([2]; WP1130 in fly food vs DMSO, FIG. 26a): blocked synaptic-loss phenotype
- bouton-loss phenotype induced by Mhc-Gal4>UAS-htauM ([2]; htauM alone, WP1130 10 μM, FIG. 26c): rescue
- latency time to enter the dark chamber [3]: latency times comparable to that of wt
- PAR-1 protein level [4]: reducing PAR-1 protein level
- phosphorylated tau level [5]: significantly reduced
- MARK4 level [6]: significantly reduced
- endogenous tau phosphorylation at the MARK sites (12E8 antibody) [7]: decreased endogenous tau phosphorylation
- stability of MARK4 [8]: decreases the stability of MARK4
